Here are results for three compounds from article PMC5063977 (The Journal of Biological Chemistry, 2016).

The test system of assay [1] is untransfected HEK-293 cells. The experiment in a line: forskolin-stimulated cAMP accumulation, untransfected HEK-293 cells. The assay is classed as cell-based, human.
For assay [2], the system named is RAMP-CLR complexes (RAMP1, RAMP2, RAMP3). Put plainly: (Ca^2+)i mobilization with inhibitor pretreatment, HEK-293 cells, all RAMP-CLR complexes. The assay is classed as cell-based, human. The protocol:
FIGURE 8. CLR in combination with each RAMP generates receptors that mobilize (Ca^2+)i release when expressed in HEK-293 cells. (Ca^2+)i mobilization was determined from HEK-293 cells transiently transfected with CLR and RAMP1 (n = 5) (A), RAMP2 (n = 5) (B), and RAMP3 (n = 5) (C). […] Data are expressed as percentage of the maximal (Ca^2+)i release as determined using 10 μM ionomycin. To determine the contribution made by different G proteins to the (Ca^2+)i response, cells were preincubated with either PTX (to inhibit Gαi) or YM-254890 (a selective Gαq inhibitor). All values are means ± S.E. of n individual data sets.
HEK-293 cells, provided by Dr. Jügen Müller (University of Aston), were cultured in DMEM supplemented with 10% heat-inactivated FBS and kept at 37 °C in a humidified 95% air, 5% CO2 incubator. HEK-293S cells (a gift from AstraZeneca) were cultured in DMEM supplemented with 8% heat-inactivated FBS and kept at 37 °C in a humidified 95% air, 5% CO2 incubator. HEK-293 cells were transfected with FuGENE 6 (Roche Applied Science) in accordance with the manufacturer's instructions using a 1:3 (w:v) DNA:FuGENE ratio and a 1:1 ratio of RAMP to CLR. HEK-293S cells were seeded into 96-well poly-D-lysine-coated plates at a density of 15,000 cells/well (determined using a Countess^TM cell counter, Invitrogen) 1 day prior to transfection. HEK-293S cells were transiently transfected as described previously ([38]) using a 1:1 ratio of RAMP to CLR. The transfected cell lines were grown for 24–48 h prior to assaying.
Transfected HEK-293 cells were grown to confluence in black, clear bottomed, 96-well plates. […] Ligands were added robotically using a Mithras LB 940 multimode microplate reader in the range of 10 pM to 1 μM, and fluorescence was determined immediately post-injection with an excitation wavelength set to 485 nm and an emission wavelength set to 535 nm. […] Peak magnitude was calculated using five-point smoothing followed by correction against background fluorescence. […]

For the compound `C=C[C@@]1(C)CC(=O)[C@]2(O)[C@@]3(C)[C@@H](O)CCC(C)(C)[C@@H]3[C@H](O)[C@H](OC(C)=O)[C@@]2(C)O1` [forskolin, Forskolin], the “overall level of cAMP accumulation, forskolin stimulation” value in assay [1] (untransfected HEK-293, PTX treated) is on record as 16.45 ± 2.4 pmol cell^−1; in assay [1] (untransfected HEK-293, untreated (no PTX)) it was 16.57 ± 2.5 pmol cell^−1.
In the case of YM-254890, the “effect of YM-254890 on (Ca^2+)i mobilization by AM and AM2” value in assay [2] (100 nM YM-254890, 30 min pretreatment, HEK-293, all RAMP-CLR complexes) was “abolish all (Ca^2+)i mobilization”. For the same compound, the “effect of YM-254890 on response to CGRP” value in assay [2] (100 nM YM-254890, 30 min pretreatment, HEK-293, all three RAMP-CLR complexes) is “considerably attenuated”.
pertussis toxin [PTX]: the “effect of PTX on calcium released in response to the three ligands” value in assay [2] (HEK-293, any RAMP-CLR complex) is reported as “no effect”.
